In brackets after ≈: the same amount, converted by molar mass.
Tests used:
[1] = Mechanical stability test (grinding and pelleting); assay type: physicochemical; details: grinding 2 min and 5 min
Description: The mechanical stability of crystalline forms I and III were investigated by grinding and pelleting. Grinding test method: the sample to be measured was put in a mortar and grinded for 2 minutes and 5 minutes respectively, then XRPD was test, and the changes of crystalline form and crystallinity were observed. Pelleting test method: the sample was placed in the die of tablet press, kept at 40 MPa for one minute, and then the crystalline form taken out to test XRPD.

[2] = Water activity experiment (slurry in acetone/water); assay type: physicochemical; details: three days
Description: Water activity experiment was carried out. Crystalline forms I and V ([…]) were slurried in a mixed solvent in acetone/water with different water contents at room temperature and 60° C. for three days, and after three days, solid sample was filtered to test XRPD, and the experimental results are as shown in Table 4.

[3] = Physical and chemical stability (stability boxes, XRPD and HPLC); assay type: physicochemical
Description: About 10 mg of crystalline forms I, III and V were placed in the stability boxes at 40° C./75% RH (open) and 60° C. (covered) for seven days, and some samples were taken out for XRPD and HPLC tests at 0 and 7 days, respectively, to investigate their physical and chemical stability.

[4] = Dynamic vapor sorption (DVS) hygroscopicity; assay type: physicochemical
Description: The solid was analyzed by DVS using IGA sorp dynamic vapor sorption instrument. • Temperature: 25° C. • Gas flow: 250 mL/min. • Scan cycle: 2. • Minimum test time: 30 min. • Maximum test time: 2 hours. • Waiting for balance: 98%.

[5] = Competitive slurrying experiment of crystalline forms I and V; assay type: physicochemical; details: acetone, ethanol, room temperature and 60° C., three days
Description: Competitive slurrying experiment was carried out: the same amount of crystalline forms I and V were weighed and mixed evenly, then XRPD was tested, and the results were used as T0 of competitive slurrying experiment. The mixture was slurried in acetone, ethanol and water at room temperature and 60° C. Three days later, solid samples were obtained by filtration, and. XRPD was tested.

[6] = Solubility in biological media SGF, FaSSIF and FeSSIF; assay type: physicochemical
Description: Compared with other crystalline forms, crystalline forms I, III and V show good solid properties, so their solubility was tested respectively.
10 mg of the sample was weighed, and then 2.0 mL of biological media buffer (i.e. the target concentration is 5 mg/mL) was added to form a suspension. The mixture was put in a constant temperature water bath shaker (37° C., 100 rpm), and sampled 500 μL at 0.5, 2 and 24 hours respectively. After filtration, the pH value and HPLC concentration of filtrate were tested respectively, and the solid sample obtained by filtration was tested by XRPD.

[7] = Solid-state crystal transformation between crystalline forms I and V; assay type: physicochemical; details: mixture of forms I and V, oven at 60° C. and room temperature dryer, one week
[8] = Pharmacokinetics, crystalline form I versus crystalline form V; assay type: in vivo, Beagle dog; details: 10 mg/kg po, fasting, male dogs
Description: Beagle dog (general grade, Beijing Masi Biotechnology Co., Ltd.) was given compound A by single oral gavage to study the pharmacokinetics of the compound in plasma. The test drug (100 mg/kg dosage, 5 mL/kg administration volume) was given by gavage, and samples were collected at 10 minutes, 30 minutes, 1 hour, 2 hours, 4 hours, 6 hours, 8 hours, 10 hours, 24 hours and 48 hours after administration: peripheral venipuncture was performed, and about 1.0 mL whole blood was collected from each animal at every time point, and blood samples were collected. Within 60 minutes after blood collection, 0.2 mL of whole blood was separated into a cryopreservation tube, and deionized water was added at a ratio of 1:1, which was mixed upside down and then frozen. The remaining samples were centrifuged at 2,000 g at 2 to 8° C. for 10 min to obtain plasma samples, and the hemolysis of each sample was recorded, and the influence on detection was evaluated, and then the color of plasma was observed and recorded on the blood collection table (“−” means no hemolysis, “+” means pink supernatant and “++” means red supernatant).
The concentration of compound A in plasma was determined by LC-MS/MS method (Non-GLP). The pharmacokinetic parameters were calculated by WinNonlin (Phoenix™, version 8.1) or other similar software. If applicable plasma drug concentration-time data are available, the following pharmacokinetic parameters are calculated: CL (clearance), Vss (steady-state apparent volume of distribution), T1/2 (elimination half-life), Cmax (peak concentration), Tmax (peak time), AUC (area under the concentration-time curve), MRT (mean residence time). Pharmacokinetic data were described by descriptive statistics, such as mean, standard deviation and sample size.
Comparison of crystalline form and crystalline form V is the same for 3 dogs (male), 10 mg/kg po, fasting, 0.5% CMC-Na stirring for 3 hours, and then administration (suspension), and the data obtained are as shown in Table 7.

[9] = system: refractory cough; details: phase II clinical trial; cited from earlier work
[10] = system: SD rats; experiment: Taste disorder test by double bottle method; assay type: in vivo, rat; details: single intraperitoneal injection, 15 minutes
Source text: SPF male SD rats (6-8 weeks) received 3 days of adaptive drinking water training immediately after storage, and the specific training content was that animals were kept in a single cage, and two bottles of water (both common drinking water) were placed in each cage, and during the adaptive training, water treatment was forbidden all night (the drinking water bottle was removed), and drinking water was given again at 8:30 am to 5:30 pm, and then this cycle lasted for 3 days, and the two bottles of water were changed every day, and during the whole adaptive training period, animals were ate freely. All animal water bottles were removed 20 hours before the formal experiment, and water was banned until the time of the experiment. During the formal experiment, all animals were randomly divided into groups, and the test compound or vehicle was given before the water supply was renewed, and the drug was given by single intraperitoneal injection, and the administration time was determined according to the Tmax of the test compound. Then, the animals were placed in a single cage, and given two bottles of drinking water, one bottle of ordinary drinking water and one bottle of 0.3 mM tonic water, and the water consumption of animals was observed within 15 minutes, and the quinine water consumption/ordinary water consumption was statistically analyzed, with positive compound 2 as the positive control of taste disorder.

[11] = male, beagle, dog, plasma, po, 10 mg/kg, 0.5% CMC-Na suspension

**Q.** Which results are given for `COC(=O)N1CCO[C@@H](Cc2c(-c3c(F)cc(S(N)(=O)=O)cc3F)nc3cc(Cl)ccn23)C1` [Crystalline form I, methyl (S)-2-((7-chloro-2-(2,6-difluoro-4-sulfamoylphenyl)imidazo[1,2-a]pyridin-3-yl)methyl)morpholine-4-carboxylate]?
**A.** crystalline form and crystallinity after grinding [1]: decreased significantly; The experimental results (crystalline form) ([2]; water content 10%, 60° C.): Crystalline form VI; The experimental results (crystalline form) ([2]; water content 10%, RT): Crystalline form I; The experimental results (crystalline form) ([2]; water content 50%, 60° C.): Crystalline form IV; The experimental results (crystalline form) ([2]; water content 50%, RT): Crystalline form IV; The experimental results (crystalline form) ([2]; water content 90%, 60° C.): Crystalline form IV; The experimental results (crystalline form) ([2]; water content 90%, RT): Crystalline form IV; Initial purity (Peak area %) ([3]; 0 days): 99.38 peak area %; Purity -7 days (peak area %) ([3]; 40° C./75% RH (open)): 99.38 peak area %; stability conclusion in words ([3]; 40° C./75% RH and 60° C., seven days): good chemical stability; Purity -7 days (peak area %) ([3]; 60° C. (covered)): 99.37 peak area %; XRPD before and after the DVS test [4]: remains unchanged; relative humidity above which transformed into hydrate of crystalline form IV [4]: higher than 40 % RH; DVS pattern, behaviour in words ([4]; 25° C.): increases sharply; hygroscopicity (DVS) ([4]; 80% RH, 25° C.): 6.8%; relative stability inferred from competitive slurrying and water activity tests [5]: more stable in organic solvent system or mixed solvent with low water content (≤10%); crystalline form during the solubility test ([6]; FaSSIF and FeSSIF buffer): transformed into hydrate of crystalline form IV; pH of filtrate ([6]; FaSSIF, 0.5 h): 6.4; Solubility ([6]; FaSSIF, 0.5 h, 37° C.): 26 µg/mL (≈ 51.9 µM); pH of filtrate ([6]; FaSSIF, 2 h): 6.4; Solubility ([6]; FaSSIF, 2 h, 37° C.): 25 µg/mL (≈ 49.9 µM); pH of filtrate ([6]; FaSSIF, 24 h): 6.4; Solubility ([6]; FaSSIF, 24 h, 37° C.): 34 µg/mL (≈ 67.9 µM); solubility at 0.5 h ([6]; FeSSIF, 37 °C, fessif, thermodynamic from solid, FeSSIF, 0.5 h, 37° C., read-out: Solubility): 72 µg/mL (≈ 144 µM); solubility at 2 h ([6]; FeSSIF, 37 °C, fessif, thermodynamic from solid, FeSSIF, 2 h, 37° C., read-out: Solubility): 83 µg/mL (≈ 166 µM); solubility at 24 h ([6]; FeSSIF, 37 °C, thermodynamic from solid, 24 h): 107 µg/mL (≈ 214 µM); pH of filtrate ([6]; FeSSIF, 0.5 h): 5.0; pH of filtrate ([6]; FeSSIF, 2 h): 5.1; pH of filtrate ([6]; FeSSIF, 24 h): 5.1; pH of filtrate ([6]; SGF, 0.5 h): 1.2; pH of filtrate ([6]; SGF, 2 h): 1.3; pH of filtrate ([6]; SGF, 24 h): 1.2; mutual crystal transformation in solid state [7]: no mutual crystal transformation trend; AUC (crystalline form I):AUC (crystalline form V) [8]: 300.53%; AUClast ([8]; 0.5% CMC-Na suspension, plasma): 7926.33 ng·h/mL; Cmax ([8]; 0.5% CMC-Na suspension, plasma): 991.33 ng/mL; F ([8]; 0.5% CMC-Na suspension, plasma): 35.2%; T1/2 ([8]; 0.5% CMC-Na suspension, plasma): 11.91 h; Tmax ([8]; 0.5% CMC-Na suspension, plasma): 2.00 h; AUC(0-inf) [8, 11]: 8940 ng·h/mL; MRT last [8, 11]: 8.11 h

**Q.** Which results are given for `COc1cc(C(C)C)c(Oc2cnc(N)nc2N)cc1S(N)(=O)=O` [Positive compound 2, reference compound]?
**A.** effect on refractory cough [9]: good effect; taste side effect [9]: taste disturbance is a serious problem; Quinine/tap water * 100% ([10]; 10 mg/kg): 18.62%; Quinine/tap water * 100% ([10]; 20 mg/kg): 34.99%
